Measured values as given in PubChem BioAssay AID1259407 (Chemical Carcinogenesis Research Information System (CCRIS), 2018).
Calls of active or inactive are those of the source. How the calls were made is not given here.

Test system: CCRIS mutagenicity, Ames/micronucleus/aberration tests
Assay: CCRIS mutagenicity studies
[1] = Test System: AMES SALMONELLA TYPHIMURIUM, Strain/Indicator: TA97, Metabolic Activation: NONE, Method: PREINCUBATION
[2] = Test System: AMES SALMONELLA TYPHIMURIUM, Strain/Indicator: TA98, Metabolic Activation: NONE, Method: PREINCUBATION
[3] = Test System: AMES SALMONELLA TYPHIMURIUM, Strain/Indicator: TA100, Metabolic Activation: NONE, Method: PREINCUBATION
[4] = Test System: AMES SALMONELLA TYPHIMURIUM, Strain/Indicator: TA98, Metabolic Activation: NONE, Method: STANDARD PLATE
[5] = Test System: AMES SALMONELLA TYPHIMURIUM, Strain/Indicator: TA98, Metabolic Activation: RAT, LIVER, S-9, AROCLOR 1254, Method: STANDARD PLATE
[6] = Test System: AMES SALMONELLA TYPHIMURIUM, Strain/Indicator: TA100, Metabolic Activation: NONE, Method: STANDARD PLATE
[7] = Test System: AMES SALMONELLA TYPHIMURIUM, Strain/Indicator: TA100, Metabolic Activation: RAT, LIVER, S-9, AROCLOR 1254, Method: STANDARD PLATE

O[C@@H]1[C@H]2O[C@H]2c2c(ccc3c4ccccc4c4ccccc4c23)[C@H]1O
mutagenic call [1]: active; positive
mutagenic call [2]: active; positive
mutagenic call [3]: active; positive
mutagenic call (Test System: AMES SALMONELLA TYPHIMURIUM, Strain/Indicator: TA104, Metabolic Activation: NONE, Method: PREINCUBATION): active; positive
mutagenic call (Test System: CHINESE HAMSTER V-79, Strain/Indicator: V-79/6-THIOGUANINE, Metabolic Activation: NONE): active; positive

c1ccc2c(c1)ncc1cnc3ccccc3c12
mutagenic call [4]: inactive; negative
mutagenic call (Test System: AMES SALMONELLA TYPHIMURIUM, Strain/Indicator: TA98, Metabolic Activation: RAT LIVER S-9, AROCLOR 1254, Method: STANDARD PLATE): inactive; negative
mutagenic call (Test System: E.COLI, Strain/Indicator: WP2, Metabolic Activation: NONE, Method: SPOT TEST): inactive; negative
mutagenic call (Test System: E.COLI, Strain/Indicator: WP2 UVRA, Metabolic Activation: NONE, Method: STANDARD PLATE): inactive; negative
mutagenic call (Test System: E.COLI, Strain/Indicator: WP2 UVRA, Metabolic Activation: R, L, S-9, AROCLOR 1254, Method: STANDARD PLATE): inactive; negative
mutagenic call (Test System: ESCHERICHIA COLI, Strain/Indicator: WP2 UVR A, Metabolic Activation: NONE, Method: STANDARD PLATE): inactive; negative
mutagenic call (Test System: ESCHERICHIA COLI, Strain/Indicator: WP2 UVR A, Metabolic Activation: RAT LIVER S-9, AROCLOR 1254, Method: STANDARD PLATE): inactive; negative

O=C1C(=O)c2cccc3cccc1c23
mutagenic call (Test System: AMES SALMONELLA TYPHIMURIUM, Strain/Indicator: TA98, Metabolic Activation: HAMSTER, LIVER, S-9, AROCLOR 1254, Method: STANDARD PLATE): inactive; negative
mutagenic call [4]: active; positive
mutagenic call [5]: active; positive
mutagenic call (Test System: AMES SALMONELLA TYPHIMURIUM, Strain/Indicator: TA100, Metabolic Activation: HAMSTER, LIVER, S-9, AROCLOR 1254, Method: STANDARD PLATE): active; positive
mutagenic call [6]: inactive; negative
mutagenic call [7]: inactive; negative
mutagenic call (Test System: MOUSE LYMPHOMA, Strain/Indicator: L5178Y (TK+/TK-), Metabolic Activation: NONE, Method: SUSPENSION/PLATE): active; positive. reevaluation of results: equivocal
mutagenic call (Test System: MOUSE LYMPHOMA, Strain/Indicator: L5178Y (TK+/TK-), Metabolic Activation: RAT, LIVER, S-9, AROCLOR 1254, Method: SUSPENSION/PLATE): active; positive. reevaluation of results: equivocal

CCOc1cc(N=Nc2ccc(N(CC)CC)cc2)ccc1N=Nc1c(S(=O)(=O)O)cc2ccc(N)cc2c1O
mutagenic call [4]: inactive; negative
mutagenic call [5]: active; positive
mutagenic call [6]: inactive; negative
mutagenic call [7]: inactive; negative
mutagenic call (Test System: AMES SALMONELLA TYPHIMURIUM, Strain/Indicator: TA1538, Metabolic Activation: NONE, Method: STANDARD PLATE): inactive; negative
mutagenic call (Test System: AMES SALMONELLA TYPHIMURIUM, Strain/Indicator: TA1538, Metabolic Activation: RAT, LIVER, S-9, AROCLOR 1254, Method: STANDARD PLATE): active; positive

C[C@H](CCC(=O)O)[C@H]1CC[C@H]2[C@@H]3[C@H](O)C[C@@H]4C[C@H](O)CC[C@]4(C)[C@H]3CC[C@]12C
mutagenic call [6]: inactive; negative
mutagenic call [7]: inactive; negative

Cc1ccc2c([N+](=O)[O-])cc[n+]([O-])c2c1
mutagenic call (Test System: UDS RODENT PRIMARY CELLS, Strain/Indicator: THY INCORP (NON-S-PHASE), Metabolic Activation: NONE, Method: AUTORADIOGRAPHY): active; positive

O=C1c2cc(O)cc(O)c2C(=O)c2c(O)cc(CO)cc21
mutagenic call (Test System: AMES SALMONELLA TYPHIMURIUM, Strain/Indicator: TA1537, Metabolic Activation: RAT, LIVER, S-9, PCB, Method: STANDARD PLATE): active; positive
mutagenic call (Test System: AMES SALMONELLA TYPHIMURIUM, Strain/Indicator: TA1537, Metabolic Activation: RAT, LIVER, S-9, POLYCHLORINATED BIPHENYLS, Method: STANDARD PLATE): active; positive

CC(=O)Nc1ccc(Oc2ccc(Cl)cc2Cl)cc1
mutagenic call [6]: inactive; negative
mutagenic call (Test System: AMES SALMONELLA TYPHIMURIUM, Strain/Indicator: TA100, Metabolic Activation: RAT, LIVER, S-9, KANECLOR 500, Method: STANDARD PLATE): active; positive

COc1cccc2c1C(=O)c1c(O)c3c(c(O)c1C2=O)CC(O)(C(C)=O)CC3OC1CC(N(C)C)C(O)C(C)O1 (stereo unspecified)
mutagenic call (Test System: CHINESE HAMSTER V-79, Strain/Indicator: V-79/8-AZAGUANINE, Metabolic Activation: RAT, HEPATOCYTES): inactive; negative
mutagenic call (Test System: UDS RAT HEPATOCYTES, Strain/Indicator: THY INCORP, Metabolic Activation: NONE, Method: AUTOMATIC COLONY COUNTER): active; positive

O=[N+]([O-])c1ccccc1Nc1ccccc1
mutagenic call (Test System: AMES SALMONELLA TYPHIMURIUM, Strain/Indicator: TA97, Metabolic Activation: HAMSTER, LIVER, S-9, AROCLOR 1254 (5, 10 OR 30%), Method: PREINCUBATION): inactive; negative
mutagenic call [1]: inactive; negative
mutagenic call (Test System: AMES SALMONELLA TYPHIMURIUM, Strain/Indicator: TA97, Metabolic Activation: RAT, LIVER, S-9, AROCLOR 1254 (10%), Method: PREINCUBATION): inactive; negative
mutagenic call (Test System: AMES SALMONELLA TYPHIMURIUM, Strain/Indicator: TA97, Metabolic Activation: RAT, LIVER, S-9, AROCLOR 1254 (30%), Method: PREINCUBATION): inactive; negative
mutagenic call (Test System: AMES SALMONELLA TYPHIMURIUM, Strain/Indicator: TA98, Metabolic Activation: HAMSTER, LIVER, S-9, AROCLOR 1254 (10%), Method: PREINCUBATION): inactive; negative
mutagenic call (Test System: AMES SALMONELLA TYPHIMURIUM, Strain/Indicator: TA98, Metabolic Activation: HAMSTER, LIVER, S-9, AROCLOR 1254 (30%), Method: PREINCUBATION): inactive; negative
mutagenic call [2]: inactive; negative
mutagenic call (Test System: AMES SALMONELLA TYPHIMURIUM, Strain/Indicator: TA98, Metabolic Activation: RAT, LIVER, S-9, AROCLOR 1254 (10%), Method: PREINCUBATION): inactive; negative
mutagenic call (Test System: AMES SALMONELLA TYPHIMURIUM, Strain/Indicator: TA98, Metabolic Activation: RAT, LIVER, S-9, AROCLOR 1254 (30%), Method: PREINCUBATION): inactive; negative
mutagenic call (Test System: AMES SALMONELLA TYPHIMURIUM, Strain/Indicator: TA100, Metabolic Activation: HAMSTER, LIVER, S-9, AROCLOR 1254 (10%), Method: PREINCUBATION): inactive; negative
mutagenic call (Test System: AMES SALMONELLA TYPHIMURIUM, Strain/Indicator: TA100, Metabolic Activation: HAMSTER, LIVER, S-9, AROCLOR 1254 (30%), Method: PREINCUBATION): inactive; negative
mutagenic call [3]: inactive; negative
mutagenic call (Test System: AMES SALMONELLA TYPHIMURIUM, Strain/Indicator: TA100, Metabolic Activation: RAT, LIVER, S-9, AROCLOR 1254 (10%), Method: PREINCUBATION): inactive; negative
mutagenic call (Test System: AMES SALMONELLA TYPHIMURIUM, Strain/Indicator: TA100, Metabolic Activation: RAT, LIVER, S-9, AROCLOR 1254 (30%), Method: PREINCUBATION): inactive; negative
mutagenic call (Test System: AMES SALMONELLA TYPHIMURIUM, Strain/Indicator: TA1535, Metabolic Activation: HAMSTER, LIVER, S-9, AROCLOR 1254 (10%), Method: PREINCUBATION): inactive; negative
mutagenic call (Test System: AMES SALMONELLA TYPHIMURIUM, Strain/Indicator: TA1535, Metabolic Activation: HAMSTER, LIVER, S-9, AROCLOR 1254 (30%), Method: PREINCUBATION): inactive; negative
mutagenic call (Test System: AMES SALMONELLA TYPHIMURIUM, Strain/Indicator: TA1535, Metabolic Activation: NONE, Method: PREINCUBATION): inactive; negative
mutagenic call (Test System: AMES SALMONELLA TYPHIMURIUM, Strain/Indicator: TA1535, Metabolic Activation: RAT, LIVER, S-9, AROCLOR 1254 (10%), Method: PREINCUBATION): inactive; negative
mutagenic call (Test System: AMES SALMONELLA TYPHIMURIUM, Strain/Indicator: TA1535, Metabolic Activation: RAT, LIVER, S-9, AROCLOR 1254 (30%), Method: PREINCUBATION): inactive; negative

CNP(=O)(NC)NC
mutagenic call (Test System: AMES SALMONELLA TYPHIMURIUM, Strain/Indicator: TA100, Metabolic Activation: NONE, Method: SUSPENSION): inactive; negative
mutagenic call (Test System: AMES SALMONELLA TYPHIMURIUM, Strain/Indicator: TA100, Metabolic Activation: RAT, LIVER, S-9, AROCLOR 1254, Method: SUSPENSION): inactive; negative
